Assay results published in ChEMBL document CHEMBL3507680, “University of Dundee, Gates Library screen for HepG2 cell viability”.

Experiment: Human HepG2 cell viability assay in 384 well format
Type: toxicity, cell-based
Set-up: dose 125 nL, time 70.5 hour; concentration not given beside the values
Details: HepG2 cells, read-out: Inhibition

Compound | cytotoxicity at 70.5 h [%]
NC(=O)c1cn(CC2CCC2)c(C2CC2)n1 | 3.19
Cc1ccc2nc(-c3nc4c([nH]3)CCCNC4=O)cn2c1 | -10.1
Cc1cnc(N2CCC3(CC2)CC(N(C)Cc2ccncc2)C3)nc1 | -5.66
CC(C)NC(=O)N1CCN(S(C)(=O)=O)CC2(CNC(=O)C2)C1 (configuration not stated) | -17.9
CCC(C(=O)NCc1ccncc1)N(c1ccccc1)S(C)(=O)=O (configuration not stated) | -3.1
Cc1cccc(-n2nc(CC(C)C)nc2CCC(=O)N(C)C)c1 | 0.846
Cc1cc(C(=O)N2CCNC(=O)CC2)c(C)n1CC(F)(F)F | 23.5
COc1cc2nc(C)n(CC(=O)NCC(C)C)c(=O)c2cc1OC | -15.9
O=C(NCCn1ccnc1)c1ccn(-c2ccccc2)n1 | -1.21
CC(C)N(C)Cc1cnc2n1CCN(Cc1cccc(C#N)c1)C2 | -13.7
COc1ccc2c(c1)C(C(=O)NCCCN1CCN(C)CC1)CC(=O)N2 (configuration not stated) | -25
CSCCC(NC(=O)c1ccc2ccccc2n1)C(=O)N(C)C (configuration not stated) | 18
CCc1cc(=O)n(CC(=O)N2CCCC2)c(-c2ccc(F)cc2)n1 | -5.4
Cn1ccc2cc(C(=O)N3CCOCC3)ccc21 | -9.22
CC1CN(c2ccc(CNC(=O)c3ccn(C)c(=O)c3)cn2)CCO1 (configuration not stated) | -8.78
CCCS(=O)(=O)N1CCN(c2cc(-n3cccc3)nc(C)n2)CC1 | -5.53
Cc1cccc(-c2nc(N)nc3c2CN(C(=O)c2ccncn2)C3C)c1 (configuration not stated) | -18.2
Cc1c(Br)cccc1NC(=O)N(C)CCO | -14.7
COCC1c2nnn(CC3CC3)c2CCN1C(=O)Cc1cccs1 (configuration not stated) | -8.15
O=C(C1CCCC1)N1CC[C@]2(O)CCN(Cc3ncccn3)C[C@@H]2C1 | -3.12
CS(=O)(=O)NCC(=O)NC1CCCN(c2ccccn2)C1 (configuration not stated) | -9.78
Cc1ccc(F)c(NC(=O)CCC(=O)N(C)Cc2nc(C)c[nH]2)c1 | -5.55
O=C(c1ccsc1)N1CC(C(=O)N2CCOCC2)C2(CCOCC2)C1 (configuration not stated) | -1.97

Compound | cytotoxicity at 70.5 h [%]
O=C(NC1CCN(c2cccc(OC(F)(F)F)c2)C1=O)C1CCC1 (configuration not stated) | -2.94
CN1CC[C@]2(CN(Cc3cccs3)C[C@H]2c2ccccc2)C1=O | -4.05
Nc1nc2c(c(NCc3nc(-c4ccncc4)n[nH]3)n1)CCCC2 | -0.22
CS(=O)(=O)CC(=O)N(CCN1CCOCC1)Cc1ccco1 | 22.7
CC(=O)N1CCC2(CC1)CCN(C(=O)c1cccc(C(F)(F)F)c1)C2 | -13.6
CC(NC(=O)CSCC#N)c1cccc(Cl)c1 (configuration not stated) | -9.11
CC(=O)N1CCN(Cc2ccc(OCc3nccn3C)cc2)CC1 | -8.75
O=C1CN(C(=O)C2CCCOC2)CCN1Cc1ccc(Cl)cc1 (configuration not stated) | -5.9
Cc1ccc(NC(=O)C2CSCN2C(=O)c2cnccn2)c(C)c1 (configuration not stated) | -5.93
CC(C)c1nnc2n1CC(CNCc1ccc3c(c1)OCCO3)CC2 (configuration not stated) | -3.48
NC(=O)CN1CCCN(C(=O)Cc2ccc(F)cc2)CC1 | -13.3
CS(=O)(=O)CCN(CC1CCCO1)C1CCCC1 (configuration not stated) | 19.5
CC(C)CN1CC(O)CN(C(=O)c2cccc(C(F)(F)F)c2)CC1=O (configuration not stated) | 13.3
CC(C)c1nc2n(n1)CC(NCc1ncc(-c3ccccc3)o1)CC2 (configuration not stated) | -6.07
Cc1noc(C2CCC3(CCN(C(=O)c4ccnnc4)CC3)O2)n1 (configuration not stated) | -0.131
CCC(CO)N(Cc1cccc(O)c1)Cc1ccccc1C (configuration not stated) | -5.23
Cc1cc(Cc2ccc(S(=O)(=O)N3CCOCC3)cc2)c(=O)[nH]n1 | 12.1
CC(C)NC(=O)COc1nc(C(C)(C)C)no1 | -6.41
CN(c1ccncn1)C1CC2(CCN(C(=O)CCc3cccs3)C2)C1 (configuration not stated) | -10.3
NC(=O)c1ccc(C2CN(Cc3ccc(F)cc3)CCO2)nc1 (configuration not stated) | 27.6
C=C(Cl)CN(C)C1CCN(CCc2ccccn2)CC1 | -6.31
Cc1c(CN2CC[C@@H](N3CCC(O)CC3)[C@H](O)C2)[nH]c2ccc(Cl)cc12 | -0.941
Cc1cnn(CCNCc2ccc(OCc3cccnc3)cc2)c1 | -4.14

Compound | cytotoxicity at 70.5 h [%]
O=c1cc(CN2CCCC2)nc2n1CCCN(CC1CC1)C2 | 20.8
O=C(Nc1ccnc2ccnn12)c1ccc(NC2CC2)nc1 | -1.35
O=C(c1cscn1)N1CCc2ncnc(-c3ccncc3)c2CC1 | -2.35
CC(C)c1nccc(CN2CCC(c3nc4ccccc4n3C)CC2)n1 | -20.5
CC(C)c1noc(C(C)N2CCN(c3ccc(C#N)cn3)CC2)n1 (configuration not stated) | -15.5
CN(C(=O)NCCCNc1ccccn1)C1CCS(=O)(=O)C1 (configuration not stated) | -10.6
COCCN1C(=O)CO[C@H]2CN(CCCc3ccccc3)C[C@H]21 | -1.96
Cc1cnc2c(C(=O)N(C)Cc3cc(C4CC4)[nH]n3)cnn2c1 | 31.8
COCCn1c2c(ccc1=O)CCN(C(=O)C1CC=CC1)CC2 | -2.63
COc1ccc(C(C)N(C)Cc2c(C3CC3)[nH]c3ncccc23)cc1 (configuration not stated) | -3.9
Cc1cccc(-c2ccc(C(=O)N3CCN(C(C)C)CC3)c(=O)[nH]2)c1 | -2.78
Cc1ncccc1Oc1ncnc(N2CCCC(O)(CO)CC2)c1C (configuration not stated) | -16.4
CCCC1CCCN(Cc2csc(-c3cnn(C)c3)n2)CC1 (configuration not stated) | 14.1
CCC(CNC(=O)c1cc(CC(C)C)nn1C)N(C)CC (configuration not stated) | -8.14
CN(C(=O)Cc1ccccc1F)C1CCN(c2ccccn2)CC1 | -3.14
CCOc1ccc(NC2CCN(C(C)C)C2=O)cn1 (configuration not stated) | -3.98
COCc1c(C(=O)N2CCCC(C(=O)c3nccn3C)C2)noc1C (configuration not stated) | -1.47
O=C(Cc1n[nH]c2ccccc12)N1CCCCC1Cn1cccn1 (configuration not stated) | 2.97
COCC(C)N1CCc2onc(-c3ccc(F)c(F)c3)c2C1 (configuration not stated) | -1.71
O=C(c1cccc2[nH]ncc12)N1CCCC1c1noc(C2CC2)n1 (configuration not stated) | -18.3
CC(=O)N1CCC(CSCc2ccco2)CC1 | 12.9
Cc1ccc(Sc2ccc(CN3CCC4(CC3)NCCNC4=O)o2)cc1 | 1.08
CC1(C)COCCN1C(=O)CCc1nc(-c2ccc(Cl)cc2)no1 | -20

Compound | cytotoxicity at 70.5 h [%]
Cc1ccc(CN[C@@H]2CO[C@H](CNS(=O)(=O)c3ccccc3)[C@H]2O)cc1 | -0.953
CNC(=O)[C@H]1C[C@@H]2CN(C(=O)c3occc3C)C[C@@H]2N1S(C)(=O)=O | -5.67
CC(=O)N1CCN(CC(=O)N2CCN(c3cccc(C)c3)CC2)CC1 | 24.4
Cc1nc(-c2cc(Cl)cc3c2OC(CN)C3)c[nH]1 (configuration not stated) | 11.1
Cc1ccc(-c2cn3c(n2)CO[C@@H](CNCc2cnn(C)c2)C3)cc1 | 6.98
O=C(c1csnn1)N1CCc2[nH]nc(COc3cccc(Cl)c3)c2C1 | -2.42
Cc1ccnc(OC[C@@]23CCO[C@@H]2CCN(c2ncccn2)C3)n1 | 5.78
Cc1nc(C)n(Cc2cccc(NC(=O)N(C)CCC(C)O)c2)n1 (configuration not stated) | -7.61
Cc1ccccc1C(CNc1ncnc2c1CCNC2)N(C)C (configuration not stated) | -7.27
CSc1nnc(CNC(=O)Nc2ccccc2F)n1C | -7.23
CNC(=O)c1cccnc1N1CCC(OCc2ccccc2)CC1 | -19.8
CS(=O)(=O)N1CC2(CCN(CC3CCCCC3)CC2)Cc2ccccc21 | 29.9
CC1CN(S(=O)(=O)c2ccc(F)cc2)c2cccnc2O1 (configuration not stated) | 1.22
Cc1nc(C(=O)N2CC(C)Sc3ccccc32)cs1 (configuration not stated) | -7.31
Cc1noc(C)c1CN1C[C@H](OCC2CC2)[C@H]2COC[C@H]21 | -7.4
CC(C)N1CCC2(CCCN(c3nccc(C(F)(F)F)n3)C2)CC1 | -2.7
Fc1ccc(CN2C[C@@H]3OCCN(CCN4CCCC4)[C@@H]3C2)cc1 | -6.53
CN(C)C(=O)Cn1c2c(ccc1=O)CCN(Cc1cnn(C)c1)CC2 | 2.17
CN(C)S(=O)(=O)N1CCN(c2nccc(C(F)(F)F)n2)CC1 | -0.547
Cc1cc(N2CCC3(CCCN(CCO)C3=O)C2)nc2ccccc12 (configuration not stated) | -26.3
COc1cc(C(=O)N(C)Cc2nccn2CC(F)(F)F)ccc1C | 15.7
Cn1cccc1C(=O)N1C[C@@H]2CCCO[C@@H]2[C@H](N2CCOCC2)C1 | 0.647
COCCCNC(=O)C1(NC(=O)c2ccc3[nH]ncc3c2)CCCC1 | -15.2

Compound | cytotoxicity at 70.5 h [%]
CCc1[nH]ncc1C(=O)N1CCN(c2nccc(OC)n2)CC1 | -3.61
O=C(NCCN1CCOCC1)N(CCCO)C1CCCc2ccccc21 (configuration not stated) | -2.32
Cc1ncsc1CN1CC[C@](C)(O)[C@@H](Oc2cccc(F)c2)C1 | -3.09
Cc1cc(C(F)(F)F)cc(=O)n1CCn1cc(Cl)cn1 | -11.3
CC(Cn1cncn1)NC(=O)Nc1ccc(COC2CCCC2)cc1 (configuration not stated) | -1.86
CC(Cc1cncs1)Nc1ncnc2cccc(F)c12 (configuration not stated) | 1.5
O=C(C1CCC1)N1C[C@@H](c2ccsc2)[C@@H]2CN(C3CCCCC3)CC[C@@H]21 | 14.8
COCCO[C@H]1CCN(C(=O)c2cc(C)on2)[C@H]1Cc1ccccc1 | 0.559
CCn1c(Cn2cncn2)nnc1C1CCN(C(=O)CCSC)CC1 | -4.61
CSc1ccc(-c2noc(CN(Cc3ccccc3)C(C)C)n2)cc1 | -6.81
c1ccc(Cn2cc(CNc3ncnc4c3CCNCC4)cn2)cc1 | -15
CCCn1cc(CNCC(c2ccc(C)s2)N2CCOCC2)cn1 (configuration not stated) | 8.59
O=C(CN1CCOC(Cn2cncn2)C1)NCc1cccs1 (configuration not stated) | 29.2
CCc1nnsc1C(=O)NCCCC(CC)(CC)C1OCCO1 | -15.8
Cc1cc(C(F)(F)F)n2nc(C3CCCN(S(C)(=O)=O)C3)cc2n1 (configuration not stated) | -2.03
Cc1ccc(Cl)cc1N1CCC(CNC(=O)Cn2cccn2)C1 (configuration not stated) | 5.6
CC1CCN(c2ncc(C#N)c(N)n2)CC1 | -3.5
CCN(Cc1nnnn1C1CC1)c1cc(C)ccc1C | -2.4
Cn1nc(CNC(=O)c2ccc3nsnc3c2)c2c1CCOC2 | -4.6
CC(C)(C)NC(=O)c1cnc(C(C)(C)C)s1 | 3.79
